Measurements published in patent US20190352276A1, “INHIBITORS OF BRUTON'S TYROSINE KINASE” (Joint Stock Company "Biocad", priority 2016, published 2019).

Test: Chemical stability in artificial gastric fluid (SGF without enzymes); further: time not given here
Conditions: 10 μM in SGF without enzymes, pH=1.4, 37° C.

Row | SMILES | Amount of substance in the sample in % (chemical stability)
1 | C=CC(=O)N1CC(n2nc(-c3ccc(Oc4ccncc4)cc3)c3cncc(Cl)c32)C1 [BCD-BTK - 282, 1-(3-(7-chloro-3-(4-(pyridin-4-yloxy)phenyl)-1H-pyrazolo[4,3-c]pyridin-1-yl)azetidin-1-yl)prop-2-en-1-one] | 100%
2 | CC#CC(=O)N1CC[C@@H](Cn2nc(-c3ccc(C(=O)Nc4ccccn4)cc3)c3cncc(Cl)c32)C1 [BCD-BTK - 286, (R)-4-(1-((1-(but-2-ynoyl)pyrrolidin-3-yl)methyl)-7-chloro-1H-pyrazolo[4,3-c]pyridin-3-yl)-N-(pyridin-2-yl)benzamide] | 100%
3 | CC#CC(=O)N1CC[C@H](Cn2nc(-c3ccc(C(=O)Nc4ccccn4)cc3)c3cncc(Cl)c32)C1 [BCD-BTK - 287, (S)-4-(1-((1-(but-2-ynoyl)pyrrolidin-3-yl)methyl)-7-chloro-1H-pyrazolo[4,3-c]pyridin-3-yl)-N-(pyridin-2-yl)benzamide] | 100%
4 | CC#CC(=O)N1CCC[C@@H](n2nc(-c3ccc(C(=O)Nc4ccccn4)cc3)c3c(N)ncc(Cl)c32)C1 [BCD-BTK - 295, (R)-4-(4-amino-1-(1-(but-2-ynoyl)piperidin-3-yl)-7-chloro-1H-pyrazolo[4,3-c]pyridin-3-yl)-N-(pyridin-2-yl)benzamide] | 89.5%
5 | CC#CC(=O)N1CC[C@@H](n2nc(-c3ccc(C(=O)Nc4ccccn4)cc3)c3cncc(Cl)c32)C1 [BCD-BTK-262, (R)-4-(1-(1-(but-2-ynoyl)pyrrolidin-3-yl)-7-chloro-1H-pyrazolo[4,3-c]pyridin-3-yl)-N-(pyridin-2-yl)benzamide] | 100%
6 | CC#CC(=O)N1CC[C@H](n2nc(-c3ccc(C(=O)Nc4ccccn4)cc3)c3cncc(Cl)c32)C1 [BCD-BTK-271, (S)-4-(1-(1-(but-2-ynoyl)pyrrolidin-3-yl)-7-chloro-1H-pyrazolo[4,3-c]pyridin-3-yl)-N-(pyridin-2-yl)benzamide] | 100%
7 | C=CC(=O)N1CC(Cn2nc(-c3ccc(C(=O)Nc4ccccn4)cc3)c3cncc(Cl)c32)C1 [BCD-BTK-276, 4-(7-chloro-1-{[1-(prop-2-enoyl)azetidin-3-yl]methyl}-1H-pyrazolo[4,3-c]pyridin-3-yl)-N-(pyridin-2-yl)benzamide] | 100%
8 | C=CC(=O)N1CCC[C@@H](Cn2nc(-c3ccc(C(=O)Nc4ccccn4)cc3)c3cncc(Cl)c32)C1 [BCD-BTK-279, (R)-4-(1-((1-acryloylpiperidin-3-yl)methyl)-7-chloro-1H-pyrazolo[4,3-c]pyridin-3-yl)-N-(pyridin-2-yl)benzamide] | 100%

Results, then the molecule that gave them:

Row | Amount of substance in the sample in % (chemical stability) | SMILES
9 | 100% | C=CC(=O)N1CCC[C@@H](n2nc(-c3cnc(C(=O)Nc4cc(C(F)(F)CCC)ccn4)nc3)c3cncc(Cl)c32)C1 [BCD-BTK - 292, (R)-5-(1-(1-acryloylpiperidin-3-yl)-7-chloro-1H-pyrazolo[4,3-c]pyridin-3-yl)-N-(4-(1,1-difluorobutyl)pyridin-2-yl)pyrimidine-2-carboxamide]
10 | 98.4% | C=CC(=O)N1CCC[C@@H](n2nc(-c3cnc(C(=O)Nc4cc(C(F)(F)CC)ccn4)nc3)c3cncc(Cl)c32)C1 [BCD-BTK - 293, (R)-5-(1-(1-acryloylpiperidin-3-yl)-7-chloro-1H-pyrazolo[4,3-c]pyridin-3-yl)-N-(4-(1,1-difluoropropyl)pyridin-2-yl)pyrimidine-2-carboxamide]
11 | 100% | C=CC(=O)N1CCC[C@@H](n2nc(-c3ccc(C(=O)Nc4cccc(F)n4)cc3)c3cncc(Cl)c32)C1 [BCD-BTK-225, (R)-4-(1-(1-acryloylpiperidin-3-yl)-7-chloro-1H-pyrazolo[4,3-c]pyridin-3-yl)-N-(6-fluoropyridin-2-yl)benzamide]
12 | 100% | C=CC(=O)N1CCC[C@@H](n2nc(-c3ccc(C(=O)Nc4ccc(F)cn4)cc3)c3cncc(C#N)c32)C1 [BCD-BTK-227, (R)-4-(1-(1-acryloylpiperidin-3-yl)-7-cyano-1H-pyrazolo[4,3-c]pyridin-3-yl)-N-(5-fluoropyridin-2-yl)benzamide]
13 | 100% | C=CC(=O)N1CCC[C@@H](n2nc(-c3ccc(C(=O)Nc4cc(C(F)(F)F)ccn4)cc3)c3cncc(F)c32)C1 [BCD-BTK-245, (R)-4-(1-(1-acryloylpiperidin-3-yl)-7-fluoro-1H-pyrazolo[4,3-c]pyridin-3-yl)-N-(4-(trifluoromethyl)pyridin-2-yl)benzamide]
14 | 100% | C=CC(=O)N1CC[C@@H](n2nc(-c3ccc(C(=O)Nc4ccccn4)cc3)c3cncc(Cl)c32)C1 [BCD-BTK-275, (R)-4-(1-(1-acryloylpyrrolidin-3-yl)-7-chloro-1H-pyrazolo[4,3-c]pyridin-3-yl)-N-(pyridin-2-yl)benzamide]
